In US20230303575A1, “FGFR AND MUTATION INHIBITOR THEREOF, PREPARATION METHOD THEREFOR AND USE THEREOF” (Abbisko Therapeutics Co., Ltd., priority 2020, published 2023):

How the values were obtained:
Assay type in all cases: cell-based
FGFR2 V564F = biological target: T1, FGFR2 V564F (Homo sapiens, UniProt P21802, V564F); assay: Cell proliferation assay for Tel-FGFR2 V564F in BaF3; details: BaF3 cells expressing FGFR2 V564F fusion, 48 hrs, CellTiter Glo
T1 construct: P41212 (Transcription factor ETV6)
T1 sequence (P21802 481-770 V564F limits assumed): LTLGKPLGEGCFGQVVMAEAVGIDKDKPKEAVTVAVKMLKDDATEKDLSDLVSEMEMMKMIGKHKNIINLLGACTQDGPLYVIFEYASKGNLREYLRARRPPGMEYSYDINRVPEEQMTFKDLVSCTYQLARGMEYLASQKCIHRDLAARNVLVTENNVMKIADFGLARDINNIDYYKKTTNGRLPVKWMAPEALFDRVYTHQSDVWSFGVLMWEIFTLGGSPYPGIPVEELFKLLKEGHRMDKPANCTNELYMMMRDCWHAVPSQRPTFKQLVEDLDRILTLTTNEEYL
Method: (§1) By transfection, cell strains of the intracellular kinase domain fusion protein of TEL-FGFR2 WT or the intracellular domain fusion proteins containing FGFR2 V564, V564F, V564L, N549K and K659M mutations were stably expressed in Baf cells. On day 1, the cell suspension was plated into a 96-well plate containing growth medium (DMEM containing 1% Glutamax, 10% FBS and 1% Pen/Strep) at 2000-4000 cells/90 μL/per well, and then the mixture was incubated overnight at 37° C. and 5% CO2. On day 2, 10 μL of growth medium containing a 10-fold stock solution of test compound was added to the cell culture (9 dose points, 3× serial dilution, starting from 1 μM, finally 0.3% DMSO). After incubation at 37° C. and 5% CO2 for 48 hrs, 50 μL of CellTiter Glo (CTG) reagent was added to the cell-containing 96-well plate on day 3, and the plate was then incubated at room temperature for 10 min. Then relative light units (RLUs) were measured on a microplate reader with a luminescence detection module. RLU values were normalized to % survival, and concentration-response curves were plotted using Prism to calculate IC50 (nM).

FGFR2 V564L = biological target: T2, FGFR2 V564L (Homo sapiens, UniProt P21802, V564L); assay: Cell proliferation assay for Tel-FGFR2 V564L in BaF3; details: BaF3 cells expressing FGFR2 V564L fusion, 48 hrs, CellTiter Glo
T2 construct: P41212 (Transcription factor ETV6)
T2 sequence (P21802 481-770 V564L limits assumed): as the sequence (P21802 481-770 V564F limits assumed) above, with F84L counted along it
Method: as §1

FGFR2 N549K = biological target: T3, FGFR2 N549K (Homo sapiens, UniProt P21802, N549K); assay: Cell proliferation assay for Tel-FGFR2 N549K in BaF3; details: BaF3 cells expressing FGFR2 N549K fusion, 48 hrs, CellTiter Glo
T3 construct: P41212 (Transcription factor ETV6)
T3 sequence (P21802 481-770 N549K limits assumed): as the sequence (P21802 481-770 V564F limits assumed) above, with N69K, F84V counted along it
Method: as §1

FGFR3 V555M = biological target: T4, FGFR3 V555M (Homo sapiens, UniProt P22607, V555M); assay: Cell proliferation assay for FGFR3 V555M in BaF3; details: BaF3 cells expressing FGFR3 V555M fusion, 48 hrs, CellTiter Glo
T4 construct: P41212 (Transcription factor ETV6)
T4 sequence (P22607 472-761 V555M limits assumed): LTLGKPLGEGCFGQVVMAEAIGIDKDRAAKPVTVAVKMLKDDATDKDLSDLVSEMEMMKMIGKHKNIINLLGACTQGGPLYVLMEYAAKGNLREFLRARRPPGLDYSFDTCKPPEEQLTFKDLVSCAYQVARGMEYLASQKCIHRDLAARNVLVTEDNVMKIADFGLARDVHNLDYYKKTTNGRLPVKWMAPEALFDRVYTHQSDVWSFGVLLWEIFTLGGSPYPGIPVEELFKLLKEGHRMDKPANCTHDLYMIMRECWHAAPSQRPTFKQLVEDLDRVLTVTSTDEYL
Method: For the compounds of the Examples of the present invention, cell strains of TEL-FGFR3 WT intracellular kinase domain fusion protein or intracellular domain fusion protein containing FGFR3 V555M or FGFR3 N540K mutation were stably expressed in Baf cells by transfection and were used to determine the cell proliferation effect of BaF3-Tel-FGFR3 WT. FGFR3 V555M or FGFR3 N540K. The specific test process was as follows: • 1) The cell suspension was plated into a 96-well plate containing growth medium (DMEM containing 1% Glutamax, 10% FBS and 1% Pen/Strep) at 2000-4000 cells/90 μL/per well, and then the mixture was incubated overnight at 37° C. and 5% CO2. • 2) 10 μL of growth medium containing a 10-fold stock solution of test compound was added to the cell culture (9 dose points, 3× serial dilution, starting from 1 μM, finally 0.3% DMSO). • 3) The mixture was incubated at 37° C. and 5% CO2 for 48 hrs. • 4) 50 μL of CellTiter Glo (CTG) reagent was added to the cell-containing 96-well plate, and the plate was then incubated at room temperature for 10 min. • 5) Relative light units (RLUs) were measured on a microplate reader with a luminescence detection module. RLU values were normalized to % survival, and concentration-response curves were plotted using Prism to calculate IC50 (nM).

Compound	IC50 (FGFR2 V564F) [nM]	IC50 (FGFR2 V564L) [nM]	IC50 (FGFR2 N549K) [nM]	IC50 (FGFR3 V555M) [nM]
C=CC(=O)N1CC[C@H](n2nc(C#Cc3cc4nc(NC)oc4cc3F)c3c(N)ncnc32)C1 [Example 29, (S)-1-(3-(4-amino-3-((6-fluoro-2-(methylamino)benzo[d]oxazol-5-yl)ethynyl)-1H-pyrazolo[3,4-d]pyrimidin-1-yl)pyrrolidin-1-yl) prop-2-en-1-one]	0.5 to 5	–	–	5 to 50
C=CC(=O)N1CC[C@H](n2nc(C#Cc3cc4nc(NCC)oc4cc3F)c3c(N)ncnc32)C1 [Example 30, (S)-1-(3-(4-amino-3-((2-(ethylamino)-6-fluorobenzo [d]oxazol-5-yl)ethynyl)-1H-pyrazolo[3,4-d]pyrimidin-1-yl)pyrrolidin-1-yl) prop-2-en-1-one]	0.5 to 5	–	–	5 to 50
C=CC(=O)N1CC[C@H](n2nc(C#Cc3cc4nc(N(C)C)oc4cc3F)c3c(N)ncnc32)C1 [Example 31, (S)-1-(3-(4-amino-3-((2-(dimethylamino)-6-fluoro-benzo[d]oxazol-5-yl)ethynyl)-1H-pyrazolo[3,4-d]pyrimidin-1-yl)pyrrolidin-1-yl)prop-2-en-1-one]	0.5 to 5	–	–	5 to 50
C=CC(=O)N1CC[C@H](n2nc(C#Cc3cc4nc(NC5CC5)oc4cc3F)c3c(N)ncnc32)C1 [Example 33, (S)-1-(3-(4-amino-3-((2-(cyclopropylamino)-6-fluorobenzo[d]oxazol-5-yl)ethynyl)-1H-pyrazolo[3,4-d]pyrimidin-1-yl)pyrrolidin-1-yl)prop-2-en-1-one]	0.5 to 5	–	–	50 to 500
C=CC(=O)N1CC[C@H](n2nc(C#Cc3cc4nc(N5CCC5)oc4cc3F)c3c(N)ncnc32)C1 [Example 34, (S)-1-(3-(4-amino-3-((2-(azetidin-1-yl)-6-fluorobenzo [d]oxazol-5-yl)ethynyl)-1H-pyrazolo[3,4-d]pyrimidin-1-yl)pyrrolidin-1-yl) prop-2-en-1-one]	0.5 to 5	–	–	0.5 to 5
C=CC(=O)N1CC[C@H](n2nc(C#Cc3cc4nc(C5CC5)oc4cc3F)c3c(N)ncnc32)C1 [Example 35, (S)-1-(3-(4-amino-3-((2-cyclopropyl-6-fluorobenzo [d]oxazol-5-yl)ethynyl)-1H-pyrazolo[3,4-d]pyrimidin-1-yl)pyrrolidin-1-yl) prop-2-en-1-one]	≤ 0.5	–	–	0.5 to 5
C=CC(=O)N1CC[C@H](n2nc(C#Cc3ccc4oc(C5(C)CC5)nc4c3)c3c(N)ncnc32)C1 [Example 39, (S)-1-(3-(4-amino-3-((2-(1-methylcyclopropyl)benzo [d]oxazol-5-yl)ethynyl)-1H-pyrazolo[3,4-d]pyrimidin-1-yl)pyrrolidin-1-yl) prop-2-en-1-one]	0.5 to 5	–	–	–
C=CC(=O)N1CC[C@H](n2cc(C#Cc3cc4nc(C)sc4cc3F)c3c(N)ncnc32)C1 [Example 47, (S)-1-(3-(4-amino-5-((6-fluoro-2-methylbenzo[d]thiazol-5-yl)ethynyl)-7H-pyrrolo[2,3-d]pyrimidin-7-yl)pyrrolidin-1-yl)prop-2-en-1-one]	≤ 0.5	–	–	5 to 50
C=CC(=O)N1CC[C@H](n2cc(C#Cc3cc4nc(C(F)F)sc4cc3F)c3c(N)ncnc32)C1 [Example 50, (S)-1-(3-(4-amino-5-((2-(difluoromethyl)-6-fluoro-benzo[d]thiazol-5-yl)ethynyl)-7H-pyrrolo[2,3-d]pyrimidin-7-yl)pyrrolidin-1-yl) prop-2-en-1-one]	0.5 to 5	–	–	5 to 50
C=CC(=O)N1CC[C@H](n2nc(C#Cc3cc4nc(C(F)F)sc4cc3F)c3c(N)ncnc32)C1 [Example 60, (S)-1-(3-(4-amino-3-((2-(difluoromethyl)-6-fluoro-benzo[d]thiazol-5-yl)ethynyl)-1H-pyrazolo[3,4-d]pyrimidin-1-yl)pyrrolidin-1-yl)prop-2-en-1-one]	0.5 to 5	–	–	–
C=CC(=O)N1CCC(c2cc(C#Cc3ccc4sc(C)nc4c3)c3c(N)ncnn23)C1 (centres unmarked) [Example 70, 1-(3-(4-amino-5-((2-methyl-benzo[d]thiazol-5-yl)ethynyl)pyrrolo[2,1-f][1,2,4]triazin-7-yl)pyrrolidin-1-yl) prop-2-en-1-one]	0.5 to 5	–	–	–
C=CC(=O)N1CC[C@H](n2cc(C#Cc3cc4nc(C(F)(F)F)oc4cc3F)c3c(N)ncnc32)C1 [Example 72, (S)-1-(3-(4-amino-5-((6-fluoro-2-(trifluoromethyl)benzo[d]oxazol-5-yl)ethynyl)-7H-pyrrolo[2,3-d]pyrimidin-7-yl)pyrrolidin-1-yl) prop-2-en-1-one]	5 to 50	–	–	50 to 500
C=CC(=O)N1CC[C@H](n2cc(C#Cc3c(F)cc4oc(N5CCC5)nc4c3F)c3c(N)ncnc32)C1 [Example 73, (S)-1-(3-(4-amino-5-((2-(azetidin-1-yl)-4,6-difluoro-benzo[d]oxazol-5-yl)ethynyl)-7H-pyrrolo[2,3-d]pyrimidin-7-yl)pyrrolidin-1-yl) prop-2-en-1-one]	≤ 0.5	–	–	0.5 to 5

Other lines, results leading:

IC50 (FGFR2 V564F) [nM]	IC50 (FGFR2 V564L) [nM]	IC50 (FGFR2 N549K) [nM]	IC50 (FGFR3 V555M) [nM]	Compound
≤ 0.5	0.5 to 5	0.5 to 5	5 to 50	C=CC(=O)N1CC[C@H](n2cc(C#Cc3ccc4oc(C)nc4c3)c3c(N)ncnc32)C1 [Example 2, (S)-1-(3-(4-amino-5-((2-methylbenzo[d]oxazol-5-yl)ethynyl)-7H-pyrrolo[2,3-d]pyrimidin-7-yl)pyrrolidin-1-yl)prop-2-en-1-one]
0.5 to 5	0.5 to 5	0.5 to 5	5 to 50	C=CC(=O)N1CC[C@H](n2cc(C#Cc3ccc4oc(CC)nc4c3)c3c(N)ncnc32)C1 [Example 3, (S)-1-(3-(4-amino-5-((2-ethylbenzo[d]oxazol-5-yl)ethynyl)-7H-pyrrolo[2,3-d]pyrimidin-7-yl)pyrrolidin-1-yl)prop-2-en-1-one]
0.5 to 5	–	–	–	C=CC(=O)N1CC[C@H](n2cc(C#Cc3ccc4oc(C(C)C)nc4c3)c3c(N)ncnc32)C1 [Example 4, (S)-1-(3-(4-amino-5-((2-isopropylbenzo[d]oxazol-5-yl)ethynyl)-7H-pyrrolo[2,3-d]pyrimidin-7-yl)pyrrolidin-1-yl)prop-2-en-1-one]
0.5 to 5	–	–	–	C=CC(=O)N1CC[C@H](n2cc(C#Cc3ccc4oc(C5CCC5)nc4c3)c3c(N)ncnc32)C1 [Example 5, (S)-1-(3-(4-amino-5-((2-cyclobutylbenzo[d]oxazol-5-yl)ethynyl)-7H-pyrrolo [2,3-d]pyrimidin-7-yl)pyrrolidin-1-yl)prop-2-en-1-one]
0.5 to 5	–	–	5 to 50	C=CC(=O)N1CC[C@H](n2nc(C#Cc3cc4nc(C5CCC5)oc4cc3F)c3c(N)ncnc32)C1 [Example 38, (S)-1-(3-(4-amino-3-((2-cyclobutyl-6-fluorobenzo [d]oxazol-5-yl)ethynyl)-1 H-pyrazolo[3,4-d]pyrimidin-1-yl)pyrrolidin-1-yl) prop-2-en-1-one]
0.5 to 5	–	–	–	C=CC(=O)N1CC[C@H](n2cc(C#Cc3ccc4sc(C5CC5)nc4c3)c3c(N)ncnc32)C1 [Example 43, (S)-1-(3-(4-amino-5-((2-cyclopropylbenzo[d]thiazol-5-yl)ethynyl)-7H-pyrrolo [2,3-d]pyrimidin-7-yl)pyrrolidin-1-yl)prop-2-en-1-one]
0.5 to 5	–	–	5 to 50	C=CC(=O)N1CCC(c2cc(C#Cc3ccc4oc(C5CC5)nc4c3)c3c(N)ncnn23)C1 (centres unmarked) [Example 63, 1-(3-(4-amino-5-((2-cyclo-propylbenzo[d]oxazol-5-yl)ethynyl)pyrrolo[2,1-f][1,2,4]triazin-7-yl)pyrrolidin-1-yl)prop-2-en-1-one]
≤ 0.5	–	–	0.5 to 5	C=CC(=O)N1CC[C@H](n2cc(C#Cc3cc4nc(C5CC5)oc4cc3F)c3c(N)ncnc32)C1 [Example 65, (S)-1-(3-(4-amino-5-((2-cyclopropyl-6-fluorobenzo [d]oxazol-5-yl)ethynyl)-7H-pyrrolo[2,3-d]pyrimidin-7-yl)pyrrolidin-1-yl)prop-2-en-1-one]
–	–	–	50 to 500	C=CC(=O)N1CC[C@H](n2cc(C#Cc3ccc4oc(C(F)(F)F)nc4c3)c3c(N)ncnc32)C1 [Example 76, (S)-1-(3-(4-amino-5-((2-(trifluoromethyl)benzo[d]oxazol-5-yl)ethynyl)-7H-pyrrolo[2,3-d]pyrimidin-7-yl)pyrrolidin-1-yl)prop-2-en-1-one]
